{
  "source": "patent US7524512B2",
  "about": "“Composition and method for the prevention and relief of the symptoms of an incompetent or patulous Eustachian tube” (priority 2007, dated 2009)",
  "key": {"[1]": {"test_system": "patulous Eustachian tube syndrome", "assay": "Selected case studies: nose drops in patients with patulous / semi-patulous Eustachian tube syndrome", "type": "in vivo, human", "procedure": "In an exemplary first administration protocol, the composition is administered in the form of nose drops, the patient sniffs them through the ipsilateral nostril on the side of the symptomatic ear affected with the disorder. The number of drops administered can be titrated to the needs of the individual patient. The patient can sniff from two to four drops of the solution, and the drops are sniffed back into the nostril so as to deliver the medication to the Eustachian tube opening in the back of the nose. Administration of the drops may be repeated again in four to six hours. As desired, the daily dose maybe increased to 4 drops per administration.\nAn exemplary nasal drop administration protocol has been developed for the first exemplary embodiment. To achieve normal closure of the lumen, 2-6 drops of the nasal supplement solution are applied to the stoma or opening of the Eustachian tube. It may take two weeks before changes in symptoms become apparent.\nReferring to the illustrations in FIGS. 1 and 2 for reference, after the patient been up for a period of time, symptoms begin as the tubal tissues lose fluid and the lumen increases. When the patient feels the symptom of autophony is about to occur, gently blowing the nose to clear any mucous is accomplished.\nWith the patient 10 lying with head 12 between 45 to 60 degrees above horizontal. This places the Eustachian tube stoma (opening) lower than the nostril 16. Gravity will allow the drops to flow to the back of the nose. Sniffing will draw the drops further info the nasal passage to the Eustachian tube before the semi-permiable membrane lining of the nasal passage can absorb them. Alternatively while sitting in a chair, the head is tilted back at approximately 45 degrees and then tilted toward the affected ear to place it almost below the nose.\nFor nasal administration, to instill the drops, put the dropper tip one-quarter inch (¼″) into the lower nostril (affected side), closest to the symptomatic ear.\nInstill 2-4 drops depending on individual anatomy. Sniffing briskly to draws the drops back approximately three inches (3″) to the location of the tube opening where they will be absorbed. The patient may feel a brief burning or stinging sensation when the drops are administered properly to stimulate the closure of the stoma of the tube. The patient then remains lying down in the administering position for ten (10) seconds."}, "[2]": {"test_system": "otitis media / middle ear infection", "assay": "Case studies: treatment of otitis media, otitis media with effusion and middle ear infection", "type": "in vivo, human", "procedure": "Modification of the composition and methods of treatment for otitis media (OM) and otitis media with effusion (OME) due to inflammatory disease of the middle ear epithelium, structures and specialized membranous tissues is described below. The inflammatory diseases of the middle ear and biofilm are treated herein treated by the following methods. The composition is preferably delivered through the natural opening at the nasopharyngeal orifice of the eustachian tube leading to the middle ear chamber. If this is not possible, a needle or myringotomy incision in made in the tympanic membrane (ear drum) via the external ear canal for the delivery of the embodiment, with or without a device, into the middle ear to chamber. The chamber is irrigated and the biofilm flushed by the exemplary embodiment of the composition delivered as described above.\nIn otitis media, the solution is topically applied to the Eustachian Tube mucosa in appropriate dosage forms for administration or delivered to the middle ear chamber by delivery through the stoma of the Eustachian Tube in the form of nasal drops, spray, aerosol, rinse, douche or gel. The delivery system may include the modified Politzer technique or catheter insufflation of the middle ear.\nIf the middle ear chamber is not easily accessible through its natural eustachian tubal stoma, the chamber can be reached directly by surgically penetrating or making an incision in the tympanic membrane of the lateral wall of the middle ear, as in a myringotomy.\nIn this way, the contaminated middle ear fluid, micro-organisms and biofilm adhesins seen in OME may be degraded and removed by a paracentesis (needle)or myringotomy (scalpel) incision of the tympanic membrane with aspiration of the fluid, under direct visualization. The middle ear fluids and debris are degraded and flushed out by rinsing with the composition of the exemplary embodiment delivered through the acquired opening into the middle ear chamber, in the form of nasal drops, spray, aerosol, rinse, douche, irrigation or gel. The composition, L-Ascorbic acid, in about 4% to 10% wt/vol in an aqueous solution, is employed through a surgically made incision or acquired defect in the tympanic membrane of the middle ear for the optimal characteristics or effects to reestablish Eustachian luminal patency, restore the rheologic properties of the membranous lining, to breakdown and eliminate the contained microorganisms, biofilm or abiotic toxins adhering to the membranes and coating any implanted device in the middle ear, to normalize surface tension and passive closing pressure, facilitating mucociliary clearance through the restored Eustachian tube orifice into the nasopharynx. The products are then swallowed and arrive in the stomach, where the endogenous enzymes and HCL of the stomach inactivate and digest and any residual microorganisms or proteinaceous products.\nIf a tympanic membrane rupture has occurred, as a complication or from specific trauma, the method of the delivery of the exemplary embodiment is modified for the maximum therapeutic effect of supporting healing of the damaged tympanic membrane. This is accomplished by the application of solid, porous or absorbable implanted devices or sculptured to the anatomical defect of the tympanic membrane and implanted under direct visualization employing a surgical microscope. A non-porous device or tube may be implanted for the delivery of the novel embodiment. The implanted device serves as a conduit through which the embodiment is administered via the external ear canal on a scheduled program for continuous availability of the composition of the exemplary embodiment to support tissue healing by pre-collagen formation and re-epithelization cardinal to middle ear functions."}, "[3]": {"details": "Example A: child, 5% in aqueous saline, topical to nasal mucosa, one month after recovery from upper respiratory infection"}, "[4]": {"details": "Example C: person, 5% wt/vol aqueous solution on porous implanted device, daily, after three months"}},
  "data": [
    {"smiles": "O=C1O[C@H]([C@@H](O)CO)C(O)=C1O", "note": "[L-Ascorbic acid]", "values": [
      {"measurement": "adverse side effects", "setting": "[1]; Example I: person, three drops, 15% wt/vol in distilled water, nose drops", "value": "no adverse side effects were noted"},
      {"measurement": "patulous Eustachian tube syndrome (autophony)", "setting": "[1]; Example I: person, three drops, 15% wt/vol in distilled water, sniffed into ipsilateral nostril, repeated six hours later", "value": "completely relieved"},
      {"measurement": "autophony symptom of an Incompetent Eustachian Tube", "setting": "[1]; Example II: person, unilateral semi-patulous Eustachian tube syndrome, 20% wt/vol aqueous solution, pH 2.0, 2-4 drops per treatment", "value": "receded completely"},
      {"measurement": "adverse side effects", "setting": "[1]; Example II: person, 20% wt/vol aqueous solution, pH 2.0, 2-4 drops", "value": "no adverse side effects"},
      {"measurement": "carcinogenic effect from daily administration of nose drops", "setting": "[1]; Example IV: person after nasopharyngeal carcinoma resection, 15% wt/vol aqueous solution, pH 2.1, daily over several years", "value": "no carcinogenic effect"},
      {"measurement": "cytology studies of the right Eustachian tube area", "setting": "[1]; Example IV: person, 15% wt/vol aqueous solution, pH 2.1, daily for several years", "value": "free of cancer"},
      {"measurement": "relief of PET symptoms", "setting": "[1]; inventor (JD) as subject, two drops, 15% wt/vol. in distilled water, as needed, after one month", "value": "complete symptomatic relief"},
      {"measurement": "middle ear pressure", "setting": "[2]; Example A: child, bilateral negative middle ear pressure, 5% in aqueous saline solution, nasal spray, over the next month", "value": "within normal limits"},
      {"measurement": "Eustachian Tube function", "setting": "[2]; [3]", "value": "normal"},
      {"measurement": "middle ear infection or fluid on examination", "setting": "[2]; [3]", "value": "no evidence of any middle ear infection or fluid"},
      {"measurement": "signs of infection", "setting": "[2]; Example B: person, Corynebacterium, 5% wt/vol in physiologic saline, two times a day", "value": "no further signs of infection"},
      {"measurement": "middle ear drainage", "setting": "[2]; Example B: person, right middle ear infection (Corynebacterium), 5% wt/vol in physiologic saline, trans canal through the perforation, two times a day, in five days", "value": "completely eliminated"},
      {"measurement": "mastoid / middle ear drainage", "setting": "[2]; Example C: person, chronic right mastoiditis, total tympanic membrane perforation, 5% wt/vol aqueous solution on porous implanted device, daily, after three months", "value": "ceased"},
      {"measurement": "infection", "setting": "[2]; [4]", "value": "free of infection"},
      {"measurement": "right eardrum perforation", "setting": "[2]; [4]", "value": "healed closed"},
      {"measurement": "hearing", "setting": "[2]; Example III: child, chronic otitis media with effusion, 4% wt/vol in physiologic saline, metered nasal spray after politzerization, after two weeks", "value": "hearing was restored"},
      {"measurement": "adverse side effects", "setting": "[2]; Example III: child, 4% wt/vol in physiologic saline, metered nasal spray", "value": "no adverse side effects"}
    ]}
  ]
}
